Experimental data taken from ChEMBL document CHEMBL4265899, “Trisubstituted thiazoles as potent and selective inhibitors of Plasmodium falciparum protein kinase G (PfPKG)” (Bioorg Med Chem Lett, 2018).

Legend:
[1] = molecular target: Ephrin type-A receptor 2 (Homo sapiens) (UniProt P29317); test: Inhibition of human EPHA2 at 100 nM
[2] = molecular target: Serine/threonine-protein kinase PLK1 (Homo sapiens) (UniProt P53350); test: Inhibition of human PLK1 at 100 nM
[3] = molecular target: Ephrin type-B receptor 3 (Homo sapiens) (UniProt P54753); test: Inhibition of human EPHB3 at 100 nM
[4] = molecular target: Vascular endothelial growth factor receptor 2 (Homo sapiens) (UniProt P35968); test: Inhibition of human VEGFR at 100 nM
[5] = molecular target: Dual specificity mitogen-activated protein kinase kinase 1 (Homo sapiens) (UniProt Q02750); test: Inhibition of human MKK1 at 100 nM
Chain of Dual specificity mitogen-activated protein kinase kinase 1 (Homo sapiens) (Q02750 whole entry): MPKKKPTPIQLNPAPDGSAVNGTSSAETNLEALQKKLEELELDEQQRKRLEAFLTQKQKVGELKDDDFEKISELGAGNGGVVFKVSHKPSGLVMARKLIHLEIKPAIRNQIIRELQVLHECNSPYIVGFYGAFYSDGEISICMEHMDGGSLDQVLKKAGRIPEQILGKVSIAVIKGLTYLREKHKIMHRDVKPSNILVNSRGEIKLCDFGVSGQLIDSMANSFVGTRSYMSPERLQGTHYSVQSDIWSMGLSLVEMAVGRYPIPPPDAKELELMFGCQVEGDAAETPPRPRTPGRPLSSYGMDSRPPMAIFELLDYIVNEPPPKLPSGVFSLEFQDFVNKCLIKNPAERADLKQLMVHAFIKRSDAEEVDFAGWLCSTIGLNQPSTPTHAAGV

[6] = Lipophilicity, log D of the compound at pH 7.4; conditions: buffer
[7] = molecular target: Serine/threonine-protein kinase PAK 4 (Homo sapiens) (UniProt O96013); test: Inhibition of human PAK4 at 100 nM
Chain of Serine/threonine-protein kinase PAK 4 (Homo sapiens) (O96013 whole entry, looked up): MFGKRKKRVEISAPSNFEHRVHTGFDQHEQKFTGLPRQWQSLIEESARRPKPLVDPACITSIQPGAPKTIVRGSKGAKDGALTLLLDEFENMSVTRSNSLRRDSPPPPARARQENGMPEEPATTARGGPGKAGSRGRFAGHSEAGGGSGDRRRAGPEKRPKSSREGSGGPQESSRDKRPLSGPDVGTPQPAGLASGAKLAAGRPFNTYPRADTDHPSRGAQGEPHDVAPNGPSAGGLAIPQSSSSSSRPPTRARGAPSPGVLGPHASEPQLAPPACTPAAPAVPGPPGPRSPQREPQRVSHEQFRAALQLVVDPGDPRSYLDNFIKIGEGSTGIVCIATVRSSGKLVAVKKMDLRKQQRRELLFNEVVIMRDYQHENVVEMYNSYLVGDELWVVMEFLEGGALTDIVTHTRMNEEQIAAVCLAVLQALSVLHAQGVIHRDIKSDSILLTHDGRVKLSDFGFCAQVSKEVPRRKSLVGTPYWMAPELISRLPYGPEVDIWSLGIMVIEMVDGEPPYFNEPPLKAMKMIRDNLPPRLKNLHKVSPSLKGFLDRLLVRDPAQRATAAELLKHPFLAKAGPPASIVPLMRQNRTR

[8] = molecular target: Calcium/calmodulin-dependent protein kinase kinase 2 (Homo sapiens) (UniProt Q96RR4); test: Inhibition of human CAMKKb at 100 nM
Chain of Calcium/calmodulin-dependent protein kinase kinase 2 (Homo sapiens) (Q96RR4 2-588 limits assumed): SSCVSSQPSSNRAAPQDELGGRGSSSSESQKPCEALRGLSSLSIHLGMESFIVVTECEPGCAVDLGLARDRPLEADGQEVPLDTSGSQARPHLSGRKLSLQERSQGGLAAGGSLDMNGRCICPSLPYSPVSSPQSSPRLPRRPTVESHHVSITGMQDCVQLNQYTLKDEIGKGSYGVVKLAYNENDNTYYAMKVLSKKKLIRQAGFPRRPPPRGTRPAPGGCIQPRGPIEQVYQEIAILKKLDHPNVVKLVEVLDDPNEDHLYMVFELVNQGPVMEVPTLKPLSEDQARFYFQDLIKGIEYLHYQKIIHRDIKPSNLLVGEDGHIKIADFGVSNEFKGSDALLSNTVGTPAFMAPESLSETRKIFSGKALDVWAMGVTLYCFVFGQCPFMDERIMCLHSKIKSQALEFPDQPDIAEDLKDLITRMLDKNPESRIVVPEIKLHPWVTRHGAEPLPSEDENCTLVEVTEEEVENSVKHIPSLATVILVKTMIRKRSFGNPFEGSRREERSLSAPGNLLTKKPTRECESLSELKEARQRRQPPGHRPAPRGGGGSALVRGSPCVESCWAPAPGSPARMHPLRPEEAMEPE

[9] = species: Homo sapiens; conditions: at 100 nM
Description: Inhibition of human PKA at 100 nM

[10] = molecular target: Misshapen-like kinase 1 (Homo sapiens) (UniProt Q8N4C8); test: Inhibition of human MINK1 at 100 nM
[11] = molecular target: Insulin receptor-related protein (Homo sapiens) (UniProt P14616); test: Inhibition of human IRR at 100 nM
[12] = molecular target: Protein kinase C zeta type (Homo sapiens) (UniProt Q05513); test: Inhibition of human PKCzeta at 100 nM
[13] = molecular target: CDK2/Cyclin A2 (Homo sapiens) (UniProt P24941+P20248); test: Inhibition of human CDK2/Cyclin A at 100 nM; type: protein-complex assay
[14] = molecular target: T1, Inhibitor of nuclear factor kappa-B kinase subunit epsilon (Homo sapiens) (UniProt Q14164); conditions: at 100 nM
T1 sequence (whole entry): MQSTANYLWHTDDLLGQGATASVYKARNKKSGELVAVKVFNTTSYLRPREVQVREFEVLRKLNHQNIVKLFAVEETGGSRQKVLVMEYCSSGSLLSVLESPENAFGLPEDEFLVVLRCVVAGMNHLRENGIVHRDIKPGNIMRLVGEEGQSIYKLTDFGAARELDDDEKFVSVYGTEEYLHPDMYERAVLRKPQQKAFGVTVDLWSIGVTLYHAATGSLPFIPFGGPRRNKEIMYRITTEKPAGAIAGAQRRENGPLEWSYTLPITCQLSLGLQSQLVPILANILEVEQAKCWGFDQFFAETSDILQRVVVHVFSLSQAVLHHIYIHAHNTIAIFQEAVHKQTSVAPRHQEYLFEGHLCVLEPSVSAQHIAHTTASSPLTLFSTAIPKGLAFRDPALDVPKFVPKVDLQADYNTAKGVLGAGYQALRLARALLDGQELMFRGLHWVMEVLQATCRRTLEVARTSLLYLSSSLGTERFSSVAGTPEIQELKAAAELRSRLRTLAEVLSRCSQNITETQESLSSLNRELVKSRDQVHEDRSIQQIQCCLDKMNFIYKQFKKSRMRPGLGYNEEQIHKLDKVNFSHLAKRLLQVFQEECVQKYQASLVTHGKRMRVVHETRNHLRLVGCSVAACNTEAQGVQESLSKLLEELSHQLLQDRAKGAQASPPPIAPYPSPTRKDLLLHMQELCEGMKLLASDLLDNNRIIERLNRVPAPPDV
Description: Inhibition of human IKKepsilon at 100 nM

[15] = molecular target: Tyrosine-protein kinase JAK2 (Homo sapiens) (UniProt O60674); test: Inhibition of human JAK2 at 100 nM
Chain of Tyrosine-protein kinase JAK2 (Homo sapiens) (O60674 whole entry): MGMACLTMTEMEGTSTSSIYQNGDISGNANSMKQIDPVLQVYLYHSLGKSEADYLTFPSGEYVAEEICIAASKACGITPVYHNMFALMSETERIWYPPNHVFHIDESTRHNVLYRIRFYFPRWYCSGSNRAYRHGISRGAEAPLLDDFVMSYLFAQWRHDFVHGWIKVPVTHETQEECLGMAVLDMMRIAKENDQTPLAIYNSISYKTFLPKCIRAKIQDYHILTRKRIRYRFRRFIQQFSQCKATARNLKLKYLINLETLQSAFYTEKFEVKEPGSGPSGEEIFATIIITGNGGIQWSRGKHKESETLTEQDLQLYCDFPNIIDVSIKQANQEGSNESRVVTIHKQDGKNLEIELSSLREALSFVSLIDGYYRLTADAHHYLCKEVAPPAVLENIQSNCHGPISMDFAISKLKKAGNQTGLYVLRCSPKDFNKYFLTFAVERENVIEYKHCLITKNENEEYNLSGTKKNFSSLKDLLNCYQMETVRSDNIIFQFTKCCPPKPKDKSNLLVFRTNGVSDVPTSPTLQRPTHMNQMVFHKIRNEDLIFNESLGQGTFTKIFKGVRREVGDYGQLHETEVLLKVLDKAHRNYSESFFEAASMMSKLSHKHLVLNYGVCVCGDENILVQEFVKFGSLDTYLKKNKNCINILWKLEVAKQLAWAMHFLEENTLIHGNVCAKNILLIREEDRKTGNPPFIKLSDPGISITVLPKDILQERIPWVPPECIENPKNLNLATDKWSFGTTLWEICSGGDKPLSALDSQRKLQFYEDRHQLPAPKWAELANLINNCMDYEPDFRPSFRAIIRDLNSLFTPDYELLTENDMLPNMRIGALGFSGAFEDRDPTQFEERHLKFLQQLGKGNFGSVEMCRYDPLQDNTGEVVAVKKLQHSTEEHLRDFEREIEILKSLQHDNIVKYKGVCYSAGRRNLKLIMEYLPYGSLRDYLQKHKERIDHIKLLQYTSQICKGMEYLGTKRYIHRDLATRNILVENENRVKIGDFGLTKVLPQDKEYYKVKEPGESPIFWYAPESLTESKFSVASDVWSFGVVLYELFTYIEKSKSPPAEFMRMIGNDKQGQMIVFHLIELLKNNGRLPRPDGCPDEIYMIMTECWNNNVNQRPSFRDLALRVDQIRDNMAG

[16] = molecular target: Tyrosine-protein kinase SYK (Homo sapiens) (UniProt P43405); test: Inhibition of human SYK at 100 nM
[17] = molecular target: SRSF protein kinase 1 (Homo sapiens) (UniProt Q96SB4); test: Inhibition of human SRPK1 at 100 nM
[18] = molecular target: Serine/threonine-protein kinase BRSK2 (Homo sapiens) (UniProt Q8IWQ3); test: Inhibition of human BRSK2 at 100 nM
[19] = system: Plasmodium falciparum; test: Antimalarial activity against Plasmodium falciparum after 48 hrs by microbeta scintillation counting-based [3H]-hypoxanthine incorporation assay; type: functional, organism-based
[20] = molecular target: Mitogen-activated protein kinase 8 (Homo sapiens) (UniProt P45983); test: Inhibition of human JNK1 at 100 nM
[21] = molecular target: Mitogen-activated protein kinase kinase kinase 9 (Homo sapiens) (UniProt P80192); test: Inhibition of human MLK1 at 100 nM
[22] = molecular target: Eukaryotic elongation factor 2 kinase (Homo sapiens) (UniProt O00418); test: Inhibition of human EF2K at 100 nM
[23] = molecular target: Calcium/calmodulin-dependent protein kinase type 1 (Homo sapiens) (UniProt Q14012); test: Inhibition of human CAMK1 at 100 nM
[24] = molecular target: Serine/threonine-protein kinase pim-1 (Homo sapiens) (UniProt P11309); test: Inhibition of human PIM1 at 100 nM
[25] = molecular target: Mitogen-activated protein kinase kinase kinase 11 (Homo sapiens) (UniProt Q16584); test: Inhibition of human MLK3 at 100 nM
[26] = molecular target: Mitogen-activated protein kinase kinase kinase 7 (Homo sapiens) (UniProt O43318); test: Inhibition of human TAK1 at 100 nM
[27] = molecular target: NUAK family SNF1-like kinase 1 (Homo sapiens) (UniProt O60285); test: Inhibition of human NUAK1 at 100 nM
[28] = molecular target: Serine/threonine-protein kinase STK11 (Homo sapiens) (UniProt Q15831); test: Inhibition of human LKB1 at 100 nM
Chain of Serine/threonine-protein kinase STK11 (Homo sapiens) (Q15831 whole entry): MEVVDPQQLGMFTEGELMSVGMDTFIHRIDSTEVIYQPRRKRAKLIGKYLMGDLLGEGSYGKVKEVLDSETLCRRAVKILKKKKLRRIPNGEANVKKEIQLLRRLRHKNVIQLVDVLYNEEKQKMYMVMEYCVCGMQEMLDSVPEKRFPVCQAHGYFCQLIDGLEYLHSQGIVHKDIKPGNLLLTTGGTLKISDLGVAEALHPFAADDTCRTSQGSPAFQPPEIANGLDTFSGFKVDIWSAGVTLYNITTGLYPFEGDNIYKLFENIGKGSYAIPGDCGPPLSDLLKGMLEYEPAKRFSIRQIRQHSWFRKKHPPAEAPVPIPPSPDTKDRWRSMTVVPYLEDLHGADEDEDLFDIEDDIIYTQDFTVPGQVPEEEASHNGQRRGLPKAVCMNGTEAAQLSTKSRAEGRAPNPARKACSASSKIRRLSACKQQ

[29] = molecular target: Serine/threonine-protein kinase Chk2 (Homo sapiens) (UniProt O96017); test: Inhibition of human CHK2 at 100 nM
[30] = molecular target: MAP kinase-activated protein kinase 5 (Homo sapiens) (UniProt Q8IW41); test: Inhibition of human PRAK at 100 nM
Chain of MAP kinase-activated protein kinase 5 (Homo sapiens) (Q8IW41 whole entry): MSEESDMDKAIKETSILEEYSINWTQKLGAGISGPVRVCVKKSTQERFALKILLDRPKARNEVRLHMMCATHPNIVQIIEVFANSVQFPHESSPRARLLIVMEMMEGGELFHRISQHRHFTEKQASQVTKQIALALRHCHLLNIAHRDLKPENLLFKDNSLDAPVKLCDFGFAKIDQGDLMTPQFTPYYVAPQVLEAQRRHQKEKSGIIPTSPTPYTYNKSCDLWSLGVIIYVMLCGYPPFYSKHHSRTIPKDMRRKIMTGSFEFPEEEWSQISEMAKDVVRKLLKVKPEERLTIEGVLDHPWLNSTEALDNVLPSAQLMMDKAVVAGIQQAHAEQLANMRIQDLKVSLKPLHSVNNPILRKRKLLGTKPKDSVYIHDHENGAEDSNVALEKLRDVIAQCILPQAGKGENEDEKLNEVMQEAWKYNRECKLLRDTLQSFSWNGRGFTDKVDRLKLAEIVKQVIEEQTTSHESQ

[31] = molecular target: Rho-associated protein kinase 2 (Homo sapiens) (UniProt O75116); test: Inhibition of human ROCK2 at 100 nM
[32] = molecular target: Mitogen-activated protein kinase 3 (Homo sapiens) (UniProt P27361); test: Inhibition of human ERK1 at 100 nM
[33] = molecular target: Mitogen-activated protein kinase 9 (Homo sapiens) (UniProt P45984); test: Inhibition of human JNK2 at 100 nM
[34] = molecular target: High affinity nerve growth factor receptor (Homo sapiens) (UniProt P04629); test: Inhibition of human TrkA at 100 nM
[35] = molecular target: Protein kinase C alpha type (Homo sapiens) (UniProt P17252); test: Inhibition of human PKCalpha at 100 nM
[36] = molecular target: Receptor tyrosine-protein kinase erbB-4 (Homo sapiens) (UniProt Q15303); test: Inhibition of human HER4 at 100 nM
Chain of Receptor tyrosine-protein kinase erbB-4 (Homo sapiens) (Q15303 whole entry): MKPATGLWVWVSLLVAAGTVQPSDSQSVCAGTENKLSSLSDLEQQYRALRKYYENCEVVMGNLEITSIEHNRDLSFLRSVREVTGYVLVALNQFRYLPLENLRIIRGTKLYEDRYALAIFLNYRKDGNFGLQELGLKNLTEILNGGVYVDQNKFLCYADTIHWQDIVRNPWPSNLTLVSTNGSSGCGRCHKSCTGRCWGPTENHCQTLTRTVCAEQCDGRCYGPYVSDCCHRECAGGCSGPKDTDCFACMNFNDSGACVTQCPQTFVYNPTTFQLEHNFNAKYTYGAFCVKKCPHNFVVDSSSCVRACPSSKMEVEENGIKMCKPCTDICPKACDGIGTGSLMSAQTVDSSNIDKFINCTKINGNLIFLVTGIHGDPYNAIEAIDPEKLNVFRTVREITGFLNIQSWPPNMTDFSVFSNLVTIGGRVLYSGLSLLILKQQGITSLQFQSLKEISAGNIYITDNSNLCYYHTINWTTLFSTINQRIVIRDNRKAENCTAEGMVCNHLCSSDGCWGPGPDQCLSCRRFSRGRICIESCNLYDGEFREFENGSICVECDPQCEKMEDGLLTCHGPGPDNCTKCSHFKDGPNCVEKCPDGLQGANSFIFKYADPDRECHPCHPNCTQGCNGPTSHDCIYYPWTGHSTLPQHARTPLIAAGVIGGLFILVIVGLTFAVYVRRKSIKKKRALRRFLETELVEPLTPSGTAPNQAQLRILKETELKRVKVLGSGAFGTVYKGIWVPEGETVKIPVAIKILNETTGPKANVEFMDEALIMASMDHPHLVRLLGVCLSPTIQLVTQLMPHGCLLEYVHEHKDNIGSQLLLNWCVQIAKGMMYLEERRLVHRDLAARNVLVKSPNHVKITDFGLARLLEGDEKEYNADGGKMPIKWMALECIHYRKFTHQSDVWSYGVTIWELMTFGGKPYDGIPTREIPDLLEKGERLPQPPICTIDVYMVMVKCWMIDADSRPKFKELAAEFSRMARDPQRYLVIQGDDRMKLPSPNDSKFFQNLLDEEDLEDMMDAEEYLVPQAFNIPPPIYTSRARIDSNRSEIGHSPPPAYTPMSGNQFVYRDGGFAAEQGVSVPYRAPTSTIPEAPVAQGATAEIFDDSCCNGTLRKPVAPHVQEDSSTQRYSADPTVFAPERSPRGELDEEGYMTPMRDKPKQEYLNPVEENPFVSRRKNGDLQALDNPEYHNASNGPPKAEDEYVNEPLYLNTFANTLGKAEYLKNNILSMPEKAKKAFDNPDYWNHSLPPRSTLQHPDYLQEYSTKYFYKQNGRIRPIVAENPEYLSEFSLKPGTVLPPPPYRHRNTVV

[37] = molecular target: Tyrosine-protein kinase Lck (Homo sapiens) (UniProt P06239); test: Inhibition of human LCK at 100 nM

Compound: CN1CCC(c2nc(-c3cccc(S(C)(=O)=O)c3)c(-c3ccnc(Nc4ccc(N5CCNCC5)cc4)n3)s2)CC1
- inhibition [1]: < 70%
- inhibition [2]: < 70%
- inhibition [3]: < 70%
- inhibition [4]: < 70%
- inhibition [5]: < 70%
- logD [6]: 0.3
- inhibition [7]: < 70%
- inhibition [8]: < 70%
- inhibition [9]: < 70%
- inhibition [10]: < 70%
- inhibition [11]: < 70%
- inhibition [12]: < 70%
- inhibition [13]: < 70%
- inhibition [14]: < 70%
- inhibition [15]: < 70%
- inhibition [16]: < 70%
- inhibition [17]: < 70%
- inhibition [18]: < 70%
- EC50 [19]: 105 nM
- inhibition [20]: < 70%
- inhibition [21]: < 70%
- inhibition [22]: < 70%
- inhibition [23]: < 70%
- inhibition [24]: < 70%
- inhibition [25]: < 70%
- inhibition [26]: < 70%
- inhibition [27]: < 70%
- inhibition [28]: < 70%
- inhibition [29]: < 70%
- inhibition [30]: < 70%
- inhibition [31]: < 70%
- inhibition [32]: < 70%
- inhibition [33]: < 70%
- inhibition [34]: < 70%
- inhibition [35]: < 70%
- inhibition [36]: > 90%
- inhibition [37]: < 70%

Compound: CN1CCC(c2nc(-c3ccc(F)c(NS(C)(=O)=O)c3)c(-c3ccnc(NCC4CC4)n3)s2)CC1
- inhibition [1]: < 70%
- inhibition [2]: < 70%
- inhibition [3]: < 70%
- inhibition [4]: < 70%
- inhibition [5]: < 70%
- logD [6]: 1.9
- inhibition [7]: < 70%
- inhibition [8]: < 70%
- inhibition [9]: < 70%
- inhibition [10]: < 70%
- inhibition [11]: < 70%
- inhibition [12]: < 70%
- inhibition [13]: < 70%
- inhibition [14]: < 70%
- inhibition [15]: < 70%
- inhibition [16]: < 70%
- inhibition [17]: < 70%
- inhibition [18]: < 70%
- EC50 [19]: 113 nM
- inhibition [20]: < 70%
- inhibition [21]: < 70%
- inhibition [22]: < 70%
- inhibition [23]: < 70%
- inhibition [24]: < 70%
- inhibition [25]: < 70%
- inhibition [26]: < 70%
- inhibition [27]: < 70%
- inhibition [28]: < 70%
- inhibition [29]: < 70%
- inhibition [30]: < 70%
- inhibition [31]: < 70%
- inhibition [32]: < 70%
- inhibition [33]: < 70%
- inhibition [34]: < 70%
- inhibition [35]: < 70%
- inhibition [36]: < 70%
- inhibition [37]: < 70%
